How the values were obtained:
[1] = test system: OVCAR-3, HaCaT and HDF cells; experiment: Cell survival rate with D-allose combined with DMSO at low concentration (Example 2); type: cell-based, human; conditions: 1 or 2% of DMSO with addition of D-allose (FIG. 9)
Method: 1. Cells used: Hela (human cervical cancer), OVCAR-3 (human ovarian cancer), HaCaT (human skin keratinocyte), HFB (human fibroblast) and NIH3T3 (mouse fibroblast). Saccharides D-allose and the like were added to culture medium, Cell Banker (commercially available preservative solution) and DMSO at concentrations of 0.2, 0.4, 0.6, 0.8 and 1M. Monosaccharides such as D-glucose, D-fructose, D-mannose and D-galactose which are present in nature in large quantities and D-allose, D-altrose, D-psicose, L-psicose, D-sorbose, L-sorbose, D-tagatose, L-tagatose and L-fructose as rare sugars were used. Further, trehalose as disaccharide was used. The cells frozen with D-allose were freeze-preserved at −80° C. and in liquid nitrogen for 24 hours, 1 week and 4 weeks. 1) Survival rate of cells: The cells were thawed, and the survival rate was estimated by a trypan blue dying method. 6) The effect of cell preservation under sub-optimal conditions by reducing the concentration of DMSO to 1, 2 or 3% was comparatively examined. OVCAR-3, HaCaT and HDF cells were used as cells. Regarding the preservation effect with DMSO, it was confirmed that the survival rate was approximately 70% or more with the use of 1 or 2% of DMSO by addition of D-allose (FIG. 9).

[2] = test system: MPO; experiment: Renal ischemic reperfusion model, MPO as index of accumulation of leukocytes; type: in vivo, rat; conditions: 400 mg/kg intravenously 30 minutes before renal ischemia; peak after 6 hours of reperfusion (FIG. 13)
Method: (§1) Object: male rats with a body weight of 200˜250 g Experimental method: After anesthetization of a rat with nenbutal, a renal ischemic model is prepared. Renal ischemic model: After extraction of the right kidney, the left kidney blood vessel is clamped for 45 minutes. 400 mg/kg of the solution is intravenously administered to the D-allose group 30 minutes before the renal ischemia. A raw feed is administered to the control group. Estimation: Change with time of a CINC-1 protein amount and MPO as an index of accumulation of leukocytes after ischemic reperfusion

[3] = test system: rat kidney; conditions: pre-administration, cited from earlier work
[4] = test system: EGF mRNA; experiment: Kidney preservation in UW solution at 4° C., EGF mRNA by northern blot; parameters: species or system rat; conditions: D-allose 5 mg/ml in UW solution, in 48 hours and 78 hours (FIG. 11)
Method: Object: male rats, 200 g to 280 g Preparations of experiment: A rat is fasted 12 hours before the experiment. After the rat is anesthetized by intraperitoneal administration of nenbutal, the stomach is shaved with an electric razor, cleaned with ether, and cut open. The abdominal aorta upper the renal artery is clamped. The UW solution is adapted to be perfused from the abdominal aorta under the renal artery. Grouping: Control group: UW solution only, D-allose group: D-allose is added to the UW solution at a concentration of 5 mg/ml. Experimental method: In the control group and the D-allose group, the kidney is withdrawn after perfusion of the UW solution in each group, put in the UW solution of each of the control group and the D-allose group, […] Estimation: Expression of detrimental factor ICAM-1 and regeneration factor EGF in mRNA was examined by northern blot.

[5] = test system: human sperms; experiment: Survival rate of frozen and thawed sperms, 0.5% Eosin Y dying; type: cell-based; conditions: freeze-preservative solution using D-allose, liquid nitrogen 1 month (FIG. 17)
Method: Semens of ten healthy men who were 24 to 44 years old (mean: 29.9) with normal semens were used.
The semen was manually collected after abstinence for 3 to 5 days, liquefied at room temperature, and then washed and concentrated by a 80% Percoll liquid agitation density gradient method. The resulting sperm turbid solution (0.2 ml) and the freeze-preservative solution were mixed in equal amounts, and the mixture was charged into a freezing tube (serum tube, Sumitomo Bakelite), frozen by a liquid nitrogen vapor freezing method, and then preserved in a liquid nitrogen tank. The freeze-preservative solution (refer to FIG. 14) was used such that the mixing amounts of D-allose and D-glucose were changed (A group=1:0, B group=3:1, C group=1:1, D group=1:3, E group=0:1) without changing the number of moles of the sugar in a KS-II sperm preservative solution. One month later, the frozen sperms were thawed in warm water (30° C.) with shaking. Further, for removal of the freeze-preservative solution and reconcentration, the density gradient centrifugation method was conducted, and the resulting sperm floating solution was examined.
As the examination method, the sperm movement rate was measured by a visual observation method with Makler Counting Chamber and C-IMAGING SYSTEMS, and the survival rate was measured by 0.5% Eosin Y dying. […]

[6] = test system: ICAM-1 mRNA; experiment: Kidney preservation in UW solution at 4° C., ICAM-1 mRNA by northern blot; parameters: species or system rat; conditions: D-allose 5 mg/ml in UW solution, clearly observed after 12 hours and 24 hours (FIG. 10)
Method: Object: male rats, 200 g to 280 g Preparations of experiment: A rat is fasted 12 hours before the experiment. After the rat is anesthetized by intraperitoneal administration of nenbutal, the stomach is shaved with an electric razor, cleaned with ether, and cut open. The abdominal aorta upper the renal artery is clamped. The UW solution is adapted to be perfused from the abdominal aorta under the renal artery. Grouping: Control group: UW solution only, D-allose group: D-allose is added to the UW solution at a concentration of 5 mg/ml. Experimental method: In the control group and the D-allose group, the kidney is withdrawn after perfusion of the UW solution in each group, put in the UW solution of each of the control group and the D-allose group, and preserved at 4° C. in pre or for 12, 24, 48 or 72 hours. Estimation: Expression of detrimental factor ICAM-1 and regeneration factor EGF in mRNA was examined by northern blot.

[7] = Murata et al., J. Bioengineering and Bioscience, 2003; cited from earlier work
[8] = test system: CINC-1; experiment: Renal ischemic reperfusion model, CINC-1 protein amount; type: in vivo, rat; conditions: 400 mg/kg intravenously 30 minutes before renal ischemia, 45 minutes clamp (FIG. 12)
Method: as §1

## O=C[C@H](O)[C@H](O)[C@H](O)[C@H](O)CO [D-allose]
[1]
  survival rate: ≥ 70%
[2]
  MPO as the index of accumulation of leukocytes: inhibited
[3]; rat kidney (WO 03/097820)
  activation and floating of neutrophils after ischemic reperfusion: inhibits
[3]; rat kidney ischemic reperfusion (WO 03/097820)
  functional disorder of the kidney: decreases
[4]
  expression of EGF mRNA during kidney preservation: still maintained
[5]
  survival rate of thawed sperms: did not show a clear effect
[6]
  expression of ICAM-1 mRNA during kidney preservation: reduced
[7]
  antioxidation activity: proved to have the antioxidation activity
[8]
  CINC-1 protein amount after ischemic reperfusion: significantly decreased

Reference: patent US9237744B2, “Preservative solution for cells, tissues and organs containing rare sugar and preservative method thereof” (NATIONAL UNIVERSITY CORPORATION KAGAWA UNIVERSITY, priority 2004, dated 2016)
